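A five-concentration, 48-hour dose response in 96-well plates underlies each endpoint, interpolated linearly between surrounding concentrations. Definition used: TGI = concentration required for complete inhibition of growth.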
Key:
Test in all cases: NCI-60 cell line screen, 48 h
786-0 renal = test system: 786-0 renal
A498 renal = test system: A498 renal
A549 NSCLC = test system: A549 NSCLC
ACHN renal = test system: ACHN renal
BT-549 breast = test system: BT-549 breast
CAKI-1 renal = test system: CAKI-1 renal
CCRF-CEM leukemia = test system: CCRF-CEM leukemia
COLO 205 colon = test system: COLO 205 colon
DU-145 prostate = test system: DU-145 prostate
EKVX NSCLC = test system: EKVX NSCLC
HCC-2998 colon = test system: HCC-2998 colon
HCT-116 colon = test system: HCT-116 colon
HCT-15 colon = test system: HCT-15 colon
HL-60(TB) leukemia = test system: HL-60(TB) leukemia
HOP-62 NSCLC = test system: HOP-62 NSCLC
HOP-92 NSCLC = test system: HOP-92 NSCLC
HS 578T breast = test system: HS 578T breast
HT29 colon = test system: HT29 colon
K-562 leukemia = test system: K-562 leukemia
KM12 colon = test system: KM12 colon
LOX IMVI melanoma = test system: LOX IMVI melanoma
M14 melanoma = test system: M14 melanoma
MALME-3M melanoma = test system: MALME-3M melanoma
MCF7 breast = test system: MCF7 breast
MDA-MB-231 breast = test system: MDA-MB-231 breast
MDA-MB-435 = test system: MDA-MB-435
MDA-N = test system: MDA-N
MOLT-4 leukemia = test system: MOLT-4 leukemia
NCI-H226 lung = test system: NCI-H226 lung
NCI-H23 lung = test system: NCI-H23 lung
NCI-H460 lung = test system: NCI-H460 lung
NCI-H522 lung = test system: NCI-H522 lung
NCI/ADR-RES ovarian = test system: NCI/ADR-RES ovarian
OVCAR-3 ovarian = test system: OVCAR-3 ovarian
OVCAR-4 ovarian = test system: OVCAR-4 ovarian
OVCAR-5 ovarian = test system: OVCAR-5 ovarian
OVCAR-8 ovarian = test system: OVCAR-8 ovarian
PC-3 prostate = test system: PC-3 prostate
RXF 393 renal = test system: RXF 393 renal
SF-268 CNS = test system: SF-268 CNS
SF-295 CNS = test system: SF-295 CNS
SF-539 CNS = test system: SF-539 CNS
SK-MEL-2 melanoma = test system: SK-MEL-2 melanoma
SK-MEL-28 melanoma = test system: SK-MEL-28 melanoma
SK-MEL-5 melanoma = test system: SK-MEL-5 melanoma
SK-OV-3 ovarian = test system: SK-OV-3 ovarian
SN12C renal = test system: SN12C renal
SNB-19 CNS = test system: SNB-19 CNS
SNB-75 CNS = test system: SNB-75 CNS
SR leukemia = test system: SR leukemia
SW-620 colon = test system: SW-620 colon
T-47D breast = test system: T-47D breast
TK-10 renal = test system: TK-10 renal
U251 CNS = test system: U251 CNS
UACC-257 melanoma = test system: UACC-257 melanoma
UACC-62 melanoma = test system: UACC-62 melanoma
UO-31 renal = test system: UO-31 renal
IGROV1 ovarian = test system: IGROV1 ovarian
RPMI-8226 leukemia = test system: RPMI-8226 leukemia

Measured: TGI

Clc1ncnc2c1nc(C#Cc1ccccc1)n2Cc1ccccc1
5.47 µM: UO-31 renal
98.4 µM: SK-MEL-2 melanoma
34.9 µM: U251 CNS
36.6 µM: HCT-15 colon
45.8 µM: COLO 205 colon
53.9 µM: OVCAR-8 ovarian
43 µM: MDA-MB-435
60 µM: SN12C renal
37.1 µM: CAKI-1 renal
36.7 µM: NCI-H522 lung
44.2 µM: SK-MEL-28 melanoma
21.6 µM: OVCAR-3 ovarian
53.8 µM: MDA-N
42.8 µM: NCI-H23 lung
48 µM: RXF 393 renal
71 µM: MDA-MB-231 breast
29.3 µM: EKVX NSCLC
28.3 µM: LOX IMVI melanoma
74.7 µM: UACC-257 melanoma
49.8 µM: BT-549 breast
53 µM: M14 melanoma
35.8 µM: OVCAR-4 ovarian
72.2 µM: HT29 colon
92.2 µM: SNB-75 CNS
27 µM: HCC-2998 colon
59.9 µM: HOP-92 NSCLC
83.8 µM: SF-539 CNS
29 µM: DU-145 prostate
not listed: IGROV1 ovarian | RPMI-8226 leukemia
> 100 µM: all other assays above

O=C(O)C/C(=C\c1ccccc1)C(=O)O
93.5 µM: K-562 leukemia
not listed: SR leukemia
> 100 µM: all other assays above

O=C1CC(CC(OCc2ccccc2)C(COCc2ccccc2)OCc2ccccc2)CC(=O)N1 (centres undefined)
61.7 µM: NCI-H522 lung
49.8 µM: BT-549 breast
85 µM: MDA-MB-435
94.5 µM: T-47D breast
58.5 µM: UO-31 renal
39.6 µM: COLO 205 colon
86.1 µM: HOP-92 NSCLC
92.8 µM: EKVX NSCLC
76.3 µM: CAKI-1 renal
63.9 µM: PC-3 prostate
65.9 µM: HT29 colon
30.9 µM: SK-MEL-5 melanoma
82.4 µM: MDA-N
74.8 µM: MOLT-4 leukemia
97.9 µM: NCI/ADR-RES ovarian
45.8 µM: MALME-3M melanoma
not listed: SK-MEL-2 melanoma | SK-OV-3 ovarian | SNB-19 CNS | TK-10 renal | UACC-62 melanoma
> 100 µM: all other assays above
